{
  "source": "patent US5137811A",
  "about": "“Method for diagnosing periodontal diseases with a substrate specific for aminopeptidase activity of periodontopathic bacteria” (Sunstar Kabushiki Kaisha, priority 1986, dated 1992)",
  "key": {"B. corporis": {"tested_on": "B. corporis", "assay": "Hydrolytic activity of cell suspension on aminopeptidase substrates (Experiment 2)", "format": "cell-based", "settings": "Table 2", "how_it_was_run": "(§1)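 A660 1.0 cell suspension + 0.2 mM β-naphthylamine-derived aminopeptidase substrate, 0.1M Tris-HCl pH 7.0, 37° C., 60 min. Garnet GBC (0.5 mg/ml, acetate pH 4.2, 10% Tween 20), 15 min, A525. Activity graded from mean β-naphthylamine released per strain.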"}, "B. intermedius": {"tested_on": "B. intermedius", "assay": "Hydrolytic activity of cell suspension on aminopeptidase substrates (Experiment 2)", "format": "cell-based", "settings": "three strains, Table 2", "how_it_was_run": "as §1"}, "Fusobacterium nucleatum [1]": {"tested_on": "Fusobacterium nucleatum", "assay": "Hydrolytic activity of cell suspension on aminopeptidase substrates (Experiment 2)", "format": "cell-based", "settings": "three strains, Table 2", "how_it_was_run": "as §1"}, "Actinomyces israelli [2]": {"tested_on": "Actinomyces israelli", "assay": "Hydrolytic activity of cell suspension on aminopeptidase substrates (Experiment 2)", "format": "cell-based", "settings": "two strains, Table 2", "how_it_was_run": "as §1"}, "B. denticola": {"tested_on": "B. denticola", "assay": "Hydrolytic activity of cell suspension on aminopeptidase substrates (Experiment 2)", "format": "cell-based", "settings": "Table 2", "how_it_was_run": "as §1"}, "[3]": {"tested_on": "Actinobacillus actinomycetemcomitans", "assay": "Hydrolytic activity of cell suspension on aminopeptidase substrates (Experiment 2)", "format": "cell-based", "settings": "four strains, Table 2", "how_it_was_run": "as §1"}, "B. gingivalis [4]": {"tested_on": "B. gingivalis", "assay": "Hydrolytic activity of cell suspension on aminopeptidase substrates (Experiment 2)", "format": "cell-based", "settings": "five strains, Table 2", "how_it_was_run": "as §1"}, "Treponema denticola [5]": {"tested_on": "Treponema denticola", "assay": "Hydrolytic activity of cell suspension on aminopeptidase substrates (Experiment 2)", "format": "cell-based", "settings": "four strains, Table 2", "how_it_was_run": "as §1"}, "B. melaninogenicus": {"tested_on": "B. melaninogenicus", "assay": "Hydrolytic activity of cell suspension on aminopeptidase substrates (Experiment 2)", "format": "cell-based", "settings": "two strains, Table 2", "how_it_was_run": "as §1"}, "[6]": {"tested_on": "periodontopathic bacteria specific aminopeptidase activity", "assay": "Hydrolytic activity of gingival crevicular fluid specimens, OD525 (Experiment 6)", "format": "biochemical", "experimental": "(§2) Substrate compounds for aminopeptidase enzyme having various color developing groups derived from β-naphthylamine were dissolved in 0.1M Tris-HCl buffer (pH 7.0) at the concentration of 0.2 mM to obtain substrate solutions.\n(§3) To the substrate solution (1.5 ml) was added the above cell suspension (0.3 ml) and reacted at 37° C. for 60 minutes. After completion of the reaction, a coloring reagent [prepared by dissolving diazonium salt of Garnet GBC in 1M acetate buffer (containing 10% Tween 20, pH: 4.2) at the concentration of 0.5 mg/ml] was added and, after 15 minutes, the absorption at 525 nm was determined with a spectrophotometer.\nSpecimens of gingival crevicular fluid were collected with paper points from five subjects who were considered to be healthy from their clinical state, six subjects with gingivitis and six subjects with periodontitis. Each specimen was dispersed in Ringer's solution (1.5 ml), and the relative amount of spirochete to total bacteria: [formula] was determined with a phase contrast microscope. Further, the Ringer's solution (0.3 ml) was tested for hydrolytic activity using the substrate solution prepared in the same manner as described in Experiment 1. As substrates, there were used compounds of the formula [1], i.e., N-benzoylvalyl-glycyl-arginine-β-naphthylamide (BzVGR) and N-carbobenzoxy-valyl-glycyl-arginine-β-naphthylamide (CxVGR) were used.\nAccording to the same manner as described in Experiment 4, hydrolytic activity was tested by using the compounds of the formulas and [2], i.e., glycyl-proline-βnaphthylamide (GP), N-benzoyl-arginyl-glycyl-phenylalanylproline-β-naphthylamide (BzRGFP), N-carbobenzoxy-valylglycyl-arginine-β-naphthylamide (CxVGR) and N-benzoylglycyl-arginine-β-naphthylamide (BzGR) alone or in combination. Hydrolytic activity was determined by measuring absorption at 525 nm (OD525) and expressed as follows."}, "[7]": {"tested_on": "periodontopathic bacteria specific aminopeptidase activity", "assay": "Hydrolytic activity of saliva supernatant, substrates alone or in combination (Experiment 9)", "format": "biochemical", "settings": "37° C. for 4 hours, Table 9", "experimental": "A saliva mixture was collected from a group consisting of ten healthy subjects and centrifuged to obtain a supernatant. Likewise, centrifuged supernatants were obtained from a group of ten subjects with adult periodontitis and a group of four localized juvenile periodontitis. The supernatant was used as a specimen and its hydrolytic activity was determined according to the same manner as described in Experiment 4 except that the reaction was carried out at 37° C. for 4 hours. As the substrates, there were used N-carbobenzoxy-valyl-glycyl-arginine-p-nitrophenol (CxVGR-pNP), N-carbobenzoxy-valyl-glycylarginine-4-methoxy-2-naphthylamide (CxVGR-4NA) and N-carbobenzoxy-valyl-glycyl-arginine-β-naphthylamide (CxVGR-βNA). Color was developed by using lN sodium hydroxide for CxVGR-pNP and Fast Blue BB for CxVGR-4NA and CxVGR-βNA.\nAccording to the same manner as described in Experiment 7, hydrolytic activity was tested by using N-carbobenzoxy-valyl-glycyl-arginine-β-naphthylamide (CxVGR-βNA), N-benzoyl-arginyl-glycyl-phenylalanyl-proline-β-naphthylamide (BzRGFP-βNA), N-carbobenzoxy-valyl-glycylarginine-p-nitrophenol (CxVGR-pNP) and N-benzoyl-arginylglycyl-phenylalanyl-proline-p-nitrophenol (BzRGFP-pNP) alone or in combination as the substrates."}, "Fusobacterium nucleatum [8]": {"tested_on": "Fusobacterium nucleatum", "assay": "Hydrolytic activity of cell suspension, substrates alone or in combination (Experiment 3)", "format": "cell-based", "settings": "three strains, Table 3", "experimental": "(§4) The strains of Treponema were anaerobically cultivated using TYGVS media at 37° C. for 7 days, while other bacterial strains were cultivated using brain heart infusion broth at 37° C. for 48 to 72 hours. Each culture was diluted to obtain a bacterial cell suspension, the absorption at 660 nm of which was 1.0.\nas §2, §3\n(§5) On the basis of the average amount of released β-naphthylamine in each strain, the hydrolytic activity was expressed as follows: […]\n(§6) According to the same manner as described in Experiment 1, periodontopathic bacteria specific aminopeptidase activity was tested by using four strains of Treponema denticola, five strains of B. gingivalis, four strains of Actinobacillus actinomycetemcomitans, two strains of Actinomyces israelli and three strains of Fusobacterium nucleatum. Abbreviations in Table 3 are the same as those in Tables 1 and 2. Hydrolytic activity \"+++\" means \"40≤release amount<80 nmol/ml\" and \"++++\" means \"release amount≥80 nmol/ml\"."}, "Actinomyces israelli [9]": {"tested_on": "Actinomyces israelli", "assay": "Hydrolytic activity of cell suspension, substrates alone or in combination (Experiment 3)", "format": "cell-based", "settings": "two strains, Table 3", "experimental": "as §4, §2, §3, §5, §6"}, "[10]": {"tested_on": "Actinobacillus actinomycetemcomitans", "assay": "Hydrolytic activity of cell suspension, substrates alone or in combination (Experiment 3)", "format": "cell-based", "settings": "four strains, Table 3", "experimental": "as §4, §2, §3, §5, §6"}, "B. gingivalis [11]": {"tested_on": "B. gingivalis", "assay": "Hydrolytic activity of cell suspension, substrates alone or in combination (Experiment 3)", "format": "cell-based", "settings": "five strains, Table 3", "experimental": "as §4, §2, §3, §5, §6"}, "Treponema denticola [12]": {"tested_on": "Treponema denticola", "assay": "Hydrolytic activity of cell suspension, substrates alone or in combination (Experiment 3)", "format": "cell-based", "settings": "four strains, Table 3", "experimental": "as §4, §2, §3, §5, §6"}},
  "note": "Where a SMILES comes first, the peptide text is derived from it. The star is where a group is joined. βNA = c1ccc2cc(N*)ccc2c1; Bz = O=C(c1ccccc1)*",
  "data": [
    {"smiles": "N=C(N)NCCC[C@H](NC(=O)c1ccccc1)C(=O)NCC(=O)N[C@@H](Cc1ccccc1)C(=O)N1CCC[C@H]1C(=O)Nc1ccc2ccccc2c1", "note": "[BzRGFP, N-benzoyl-arginyl-glycyl-phenylalanyl-proline-β-naphthylamide] (Bz-RGFP-βNA)", "values": [
      {"measurement": "hydrolytic activity (average amount of released β-naphthylamine)", "setting": "B. corporis", "value": "++ (20 ≤release amount<40 nmol/ml)"},
      {"measurement": "hydrolytic activity (average amount of released β-naphthylamine)", "setting": "B. intermedius", "value": "+++ (release amount≥40 nmol/ml)"},
      {"measurement": "hydrolytic activity (average amount of released β-naphthylamine)", "setting": "Fusobacterium nucleatum [1]", "value": "- (release amount<5 nmol/ml)"},
      {"measurement": "hydrolytic activity (average amount of released β-naphthylamine)", "setting": "Actinomyces israelli [2]", "value": "- (release amount<5 nmol/ml)"},
      {"measurement": "hydrolytic activity (average amount of released β-naphthylamine)", "setting": "B. denticola", "value": "+++ (release amount≥40 nmol/ml)"},
      {"measurement": "hydrolytic activity (average amount of released β-naphthylamine)", "setting": "[3]", "value": "- (release amount<5 nmol/ml)"},
      {"measurement": "hydrolytic activity (average amount of released β-naphthylamine)", "setting": "B. gingivalis [4]", "value": "++ (20 ≤release amount<40 nmol/ml)"},
      {"measurement": "hydrolytic activity (average amount of released β-naphthylamine)", "setting": "Treponema denticola [5]", "value": "++ (20 ≤release amount<40 nmol/ml)"},
      {"measurement": "hydrolytic activity (average amount of released β-naphthylamine)", "setting": "B. melaninogenicus", "value": "+++ (release amount≥40 nmol/ml)"},
      {"measurement": "hydrolytic activity, absorption at 525 nm (OD525)", "setting": "[6]; Gingivitis subject 1 (spirochete 7.3 %)", "value": "+ (0.1≤OD525 <0.2)"},
      {"measurement": "hydrolytic activity, absorption at 525 nm (OD525)", "setting": "[6]; Gingivitis subject 2 (spirochete 16.7 %)", "value": "+ (0.1≤OD525 <0.2)"},
      {"measurement": "hydrolytic activity, absorption at 525 nm (OD525)", "setting": "[6]; Gingivitis subject 3 (spirochete 20.5 %)", "value": "++ (0.2≤OD525 <0.4)"},
      {"measurement": "hydrolytic activity, absorption at 525 nm (OD525)", "setting": "[6]; Gingivitis subject 4 (spirochete 6.8 %)", "value": "- (OD525 <0.1)"},
      {"measurement": "hydrolytic activity, absorption at 525 nm (OD525)", "setting": "[6]; Gingivitis subject 5 (spirochete 7.3 %)", "value": "- (OD525 <0.1)"},
      {"measurement": "hydrolytic activity, absorption at 525 nm (OD525)", "setting": "[6]; Gingivitis subject 6 (spirochete 14.4 %)", "value": "+ (0.1≤OD525 <0.2)"},
      {"measurement": "hydrolytic activity, absorption at 525 nm (OD525)", "setting": "[6]; Healthy subject 1 (spirochete 0.1 %)", "value": "- (OD525 <0.1)"},
      {"measurement": "hydrolytic activity, absorption at 525 nm (OD525)", "setting": "[6]; Healthy subject 2 (spirochete 2.5 %)", "value": "+ (0.1≤OD525 <0.2)"},
      {"measurement": "hydrolytic activity, absorption at 525 nm (OD525)", "setting": "[6]; Healthy subject 3 (spirochete 1.1 %)", "value": "- (OD525 <0.1)"},
      {"measurement": "hydrolytic activity, absorption at 525 nm (OD525)", "setting": "[6]; Healthy subject 4 (spirochete 0.6 %)", "value": "- (OD525 <0.1)"},
      {"measurement": "hydrolytic activity, absorption at 525 nm (OD525)", "setting": "[6]; Healthy subject 5 (spirochete 1.3 %)", "value": "- (OD525 <0.1)"},
      {"measurement": "hydrolytic activity, absorption at 525 nm (OD525)", "setting": "[6]; Periodontitis subject 1 (spirochete 45.2 %)", "value": "+++ (0.4≤OD525 <0.8)"},
      {"measurement": "hydrolytic activity, absorption at 525 nm (OD525)", "setting": "[6]; Periodontitis subject 2 (spirochete 30.3 %)", "value": "+++ (0.4≤OD525 <0.8)"},
      {"measurement": "hydrolytic activity, absorption at 525 nm (OD525)", "setting": "[6]; Periodontitis subject 3 (spirochete 34.6 %)", "value": "+++ (0.4≤OD525 <0.8)"},
      {"measurement": "hydrolytic activity, absorption at 525 nm (OD525)", "setting": "[6]; Periodontitis subject 4 (spirochete 21.2 %)", "value": "+++ (0.4≤OD525 <0.8)"},
      {"measurement": "hydrolytic activity, absorption at 525 nm (OD525)", "setting": "[6]; Periodontitis subject 5 (spirochete 40.3 %)", "value": "+++ (0.4≤OD525 <0.8)"},
      {"measurement": "hydrolytic activity, absorption at 525 nm (OD525)", "setting": "[6]; Periodontitis subject 6 (spirochete 35.1 %)", "value": "+++ (0.4≤OD525 <0.8)"},
      {"measurement": "hydrolytic activity", "setting": "[7]; Adult Periodontitis subjects", "value": "27.8 ± 7.4", "unit": "nmol/mL"},
      {"measurement": "hydrolytic activity", "setting": "[7]; Healthy subjects", "value": "13.2 ± 5.4", "unit": "nmol/mL"},
      {"measurement": "hydrolytic activity", "setting": "[7]; Localized juvenile periodontitis subjects", "value": "22.6 ± 5.3", "unit": "nmol/mL"},
      {"measurement": "hydrolytic activity (release amount)", "setting": "Fusobacterium nucleatum [8]", "value": "- (release amount<5 nmol/ml)"},
      {"measurement": "hydrolytic activity (release amount)", "setting": "Actinomyces israelli [9]", "value": "- (release amount<5 nmol/ml)"},
      {"measurement": "hydrolytic activity (release amount)", "setting": "[10]", "value": "- (release amount<5 nmol/ml)"},
      {"measurement": "hydrolytic activity (release amount)", "setting": "B. gingivalis [11]", "value": "++ (20 ≤release amount<40 nmol/ml)"},
      {"measurement": "hydrolytic activity (release amount)", "setting": "Treponema denticola [12]", "value": "++ (20 ≤release amount<40 nmol/ml)"}
    ]}
  ]
}
